From the NIST ThermoML archive (doi:10.1021/je7003116)

Assay: mn = molality of the nth substance listed, in mol/kg
Details: for electrical conductivity / mass density: 101 kPa, Liquid; for electrical conductivity: Alternating current cell with electrodes

CC(=O)CC(c1ccccc1)c1c([O-])c2ccccc2oc1=O.[Na+] (stereo not given) [warfarin sodium] + O
Details	electrical conductivity [S/m]	mass density [kg/m3]	surface tension liquid-gas [mN/m]
293.15 K, m1 = 0.005	0.0273	–	–
293.15 K, m1 = 0.00573	–	998.701	–
293.15 K, m1 = 0.006	0.0326	–	66.46
293.15 K, m1 = 0.00689	–	998.801	–
293.15 K, m1 = 0.007	0.0379	–	65.61
293.15 K, m1 = 0.00749	–	998.852	–
293.15 K, m1 = 0.008	0.0434	–	64.92
293.15 K, m1 = 0.00851	–	998.94	–
293.15 K, m1 = 0.009	0.0485	–	64.06
293.15 K, m1 = 0.00983	–	999.054	–
293.15 K, m1 = 0.01	0.0535	–	62.77
293.15 K, m1 = 0.018	–	–	58.07
293.15 K, m1 = 0.02	0.1042	–	–
293.15 K, m1 = 0.02401	–	1000.27	–
293.15 K, m1 = 0.027	–	–	52.97
293.15 K, m1 = 0.04	0.198	–	50.48
293.15 K, m1 = 0.0466	–	1002.19	–
293.15 K, m1 = 0.054	–	–	48.47
293.15 K, m1 = 0.06	0.283	–	–
293.15 K, m1 = 0.067	–	–	45.58
293.15 K, m1 = 0.0718	–	1004.26	–
293.15 K, m1 = 0.078	–	–	43.98
293.15 K, m1 = 0.08	0.381	–	–
293.15 K, m1 = 0.089	–	–	41.68
293.15 K, m1 = 0.0984	–	1006.41	–
293.15 K, m1 = 0.1	0.464	–	–
293.15 K, m1 = 0.107	–	–	41.58
293.15 K, m1 = 0.125	0.56	–	40.94
293.15 K, m1 = 0.1251	–	1008.51	–
293.15 K, m1 = 0.15	0.651	1010.43	40.38
293.15 K, m1 = 0.175	0.737	–	40.23
293.15 K, m1 = 0.176	–	1012.59	–
293.15 K, m1 = 0.2	0.822	1014.56	40.72
293.15 K, m1 = 0.225	0.901	1016.71	40.23
293.15 K, m1 = 0.25	0.974	1018.89	39.64
293.15 K, m1 = 0.275	1.041	1020.99	–
293.15 K, m1 = 0.279	–	–	40.09
293.15 K, m1 = 0.3	1.102	1023.15	–
293.15 K, m1 = 0.325	–	1025.24	–
293.15 K, m1 = 0.35	–	1027.33	–
293.15 K, m1 = 0.375	–	1029.29	–
293.15 K, m1 = 0.401	–	1031.33	–
303.15 K, m1 = 0.005	0.0288	–	–
303.15 K, m1 = 0.00579	–	996.134	–
303.15 K, m1 = 0.006	0.0344	–	–
303.15 K, m1 = 0.00695	–	996.231	–
303.15 K, m1 = 0.007	0.04	–	–
303.15 K, m1 = 0.00754	–	996.281	–
303.15 K, m1 = 0.008	0.0455	–	–
303.15 K, m1 = 0.00857	–	996.367	–
303.15 K, m1 = 0.009	0.051	–	–
303.15 K, m1 = 0.00987	–	996.476	–
303.15 K, m1 = 0.01	0.0565	–	–
303.15 K, m1 = 0.02	0.1087	–	–
303.15 K, m1 = 0.024	–	997.658	–
303.15 K, m1 = 0.04	0.209	–	–
303.15 K, m1 = 0.0465	–	999.515	–
303.15 K, m1 = 0.06	0.302	–	–
303.15 K, m1 = 0.0715	–	1001.52	–
303.15 K, m1 = 0.08	0.39	–	–
303.15 K, m1 = 0.0983	–	1003.59	–
303.15 K, m1 = 0.1	0.473	–	–
303.15 K, m1 = 0.125	0.575	1005.62	–
303.15 K, m1 = 0.15	0.67	1007.48	–
303.15 K, m1 = 0.175	0.761	–	–
303.15 K, m1 = 0.2	0.847	–	–
303.15 K, m1 = 0.225	0.928	–	–
303.15 K, m1 = 0.25	1.008	–	–
303.15 K, m1 = 0.275	1.081	–	–
303.15 K, m1 = 0.3	1.154	–	–
